# Reference: PubChem BioAssay AID1963848 (Molecular Pharmacology Branch, DTP, NCI, 2024)
# System: 379773-124-R-J2-PDC spheroid viability
# Assay: Anticancer human tumor 379773-124-R-J2-PDC patient-derived endometrial carcinoma cell line growth inhibition [POLQ]
# Conditions: spheroids with HUVEC and MSC; for IC50: curve of first compound; for viability, T/C: stronger effect = lower value
# Summary of the method: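 Three-cell-type spheroids modelling solid tumor plus stroma served as the readout system; POL inhibitors were tested individually and in combination, concentration ranges set by clinical Cmax where known.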
# [1] = second compound 0.0316 µM, first compound 0.0316 µM
# [2] = second compound 0.0316 µM, first compound 0.1 µM
# [3] = second compound 0.0316 µM, first compound 0.316 µM
# [4] = second compound 0.0316 µM, first compound 1 µM
# [5] = second compound 0.0316 µM, first compound 3.16 µM
# [6] = second compound 0.0316 µM, first compound 10 µM
# [7] = second compound 0.1 µM, first compound 0.0316 µM
# [8] = second compound 0.1 µM, first compound 0.1 µM
# [9] = second compound 0.1 µM, first compound 0.316 µM
# [10] = second compound 0.1 µM, first compound 1 µM
# [11] = second compound 0.1 µM, first compound 3.16 µM
# [12] = second compound 0.1 µM, first compound 10 µM
# [13] = second compound 0.316 µM, first compound 0.0316 µM
# [14] = second compound 0.316 µM, first compound 0.1 µM
# [15] = second compound 0.316 µM, first compound 0.316 µM
# [16] = second compound 0.316 µM, first compound 1 µM
# [17] = second compound 0.316 µM, first compound 3.16 µM
# [18] = second compound 0.316 µM, first compound 10 µM
# [19] = second compound 1 µM, first compound 0.0316 µM
# [20] = second compound 1 µM, first compound 0.1 µM
# [21] = second compound 1 µM, first compound 0.316 µM
# [22] = second compound 1 µM, first compound 1 µM
# [23] = second compound 1 µM, first compound 3.16 µM
# [24] = second compound 1 µM, first compound 10 µM
# [25] = second compound 3.16 µM, first compound 0.0316 µM
# [26] = second compound 3.16 µM, first compound 0.1 µM
# [27] = second compound 3.16 µM, first compound 0.316 µM
# [28] = second compound 3.16 µM, first compound 1 µM
# [29] = second compound 3.16 µM, first compound 3.16 µM
# [30] = second compound 3.16 µM, first compound 10 µM
# [31] = second compound 10 µM, first compound 0.0316 µM
# [32] = second compound 10 µM, first compound 0.1 µM
# [33] = second compound 10 µM, first compound 0.316 µM
# [34] = second compound 10 µM, first compound 1 µM
# [35] = second compound 10 µM, first compound 3.16 µM
# [36] = second compound 10 µM, first compound 10 µM
# 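Note: spheroids exposed to drugs for seven days before readout.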
# 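Throughout, for viability, T/C: percent viability relative to DMSO vehicle control taken as 100%.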
smiles,measurement,setting,value
CC1COCCN1c1cc(C2(S(C)(=N)=O)CC2)nc(-c2ccnc3[nH]ccc23)n1 (stereo unspecified) + COC1C(OC(N)=O)C(O)C(Oc2ccc3c(O)c(NC(=O)c4ccc(O)c(CC=C(C)C)c4)c(=O)oc3c2C)OC1(C)C,IC50,second compound 0.0316 µM,1.91 µM
same,IC50,second compound 0.1 µM,1.85 µM
same,IC50,second compound 0.316 µM,1.78 µM
same,IC50,second compound 1 µM,1.93 µM
same,IC50,second compound 3.16 µM,1.79 µM
same,IC50,second compound 10 µM,1.67 µM
same,"viability, T/C",[1],100%
same,"viability, T/C",[2],86.1%
same,"viability, T/C",[3],78.5%
same,"viability, T/C",[4],78.2%
same,"viability, T/C",[5],28.9%
same,"viability, T/C",[6],5.71%
same,"viability, T/C",[7],92%
same,"viability, T/C",[8],85.2%
same,"viability, T/C",[9],91.3%
same,"viability, T/C",[10],79.9%
same,"viability, T/C",[11],24%
same,"viability, T/C",[12],5.69%
same,"viability, T/C",[13],91.1%
same,"viability, T/C",[14],82.1%
same,"viability, T/C",[15],77.1%
same,"viability, T/C",[16],75.7%
same,"viability, T/C",[17],24.9%
same,"viability, T/C",[18],7.92%
same,"viability, T/C",[19],87%
same,"viability, T/C",[20],82.1%
same,"viability, T/C",[21],87%
same,"viability, T/C",[22],79%
same,"viability, T/C",[23],28%
same,"viability, T/C",[24],7.44%
same,"viability, T/C",[25],78%
same,"viability, T/C",[26],88.2%
same,"viability, T/C",[27],81.5%
same,"viability, T/C",[28],67.5%
same,"viability, T/C",[29],32.6%
same,"viability, T/C",[30],8.77%
same,"viability, T/C",[31],85.6%
same,"viability, T/C",[32],74.4%
same,"viability, T/C",[33],79.8%
same,"viability, T/C",[34],61.7%
same,"viability, T/C",[35],34.5%
same,"viability, T/C",[36],5.53%
COc1ccc([C@@H](O)c2cc(-c3ncnc4cc(N5CCOCC5)ccc34)c(F)cc2Cl)nn1 + COC1C(OC(N)=O)C(O)C(Oc2ccc3c(O)c(NC(=O)c4ccc(O)c(CC=C(C)C)c4)c(=O)oc3c2C)OC1(C)C,IC50,second compound 0.0316 µM,7.23 µM
same,IC50,second compound 0.1 µM,9.89 µM
same,IC50,second compound 0.316 µM,7.3 µM
same,IC50,second compound 1 µM,8.15 µM
same,IC50,second compound 3.16 µM,7.85 µM
same,IC50,second compound 10 µM,7.09 µM
same,"viability, T/C",[1],89.6%
same,"viability, T/C",[2],85.1%
same,"viability, T/C",[3],88.3%
same,"viability, T/C",[4],80%
same,"viability, T/C",[5],81.1%
same,"viability, T/C",[6],37.6%
same,"viability, T/C",[7],81.4%
same,"viability, T/C",[8],81.4%
same,"viability, T/C",[9],91.5%
same,"viability, T/C",[10],81.1%
same,"viability, T/C",[11],91.1%
same,"viability, T/C",[12],49.7%
same,"viability, T/C",[13],92.6%
same,"viability, T/C",[14],82.1%
same,"viability, T/C",[15],79.1%
same,"viability, T/C",[16],81.6%
same,"viability, T/C",[17],75.1%
same,"viability, T/C",[18],40.4%
same,"viability, T/C",[19],74.2%
same,"viability, T/C",[20],83.1%
same,"viability, T/C",[21],83.9%
same,"viability, T/C",[22],87.8%
same,"viability, T/C",[23],82.1%
same,"viability, T/C",[24],43.1%
same,"viability, T/C",[25],81%
same,"viability, T/C",[26],83.3%
same,"viability, T/C",[27],96.7%
same,"viability, T/C",[28],77.5%
same,"viability, T/C",[29],78.5%
same,"viability, T/C",[30],42.5%
same,"viability, T/C",[31],80.3%
same,"viability, T/C",[32],75.8%
same,"viability, T/C",[33],82.6%
same,"viability, T/C",[34],80.1%
same,"viability, T/C",[35],95.8%
same,"viability, T/C",[36],35.9%
Cn1ncnc1[C@H]1c2n[nH]c(=O)c3cc(F)cc(c23)N[C@@H]1c1ccc(F)cc1 + COC1C(OC(N)=O)C(O)C(Oc2ccc3c(O)c(NC(=O)c4ccc(O)c(CC=C(C)C)c4)c(=O)oc3c2C)OC1(C)C,IC50,second compound 0.0316 µM,> 0.1 µM
same,IC50,second compound 0.1 µM,> 0.1 µM
same,IC50,second compound 0.316 µM,> 0.1 µM
same,IC50,second compound 1 µM,> 0.1 µM
same,IC50,second compound 3.16 µM,> 0.1 µM
same,IC50,second compound 10 µM,> 0.1 µM
same,"viability, T/C","second compound 0.0316 µM, first compound 0.000316 µM",97.8%
same,"viability, T/C","second compound 0.0316 µM, first compound 0.001 µM",82.9%
same,"viability, T/C","second compound 0.0316 µM, first compound 0.00316 µM",99.7%
same,"viability, T/C","second compound 0.0316 µM, first compound 0.01 µM",96.3%
same,"viability, T/C",[1],74%
same,"viability, T/C",[2],56.1%
same,"viability, T/C","second compound 0.1 µM, first compound 0.000316 µM",90.3%
same,"viability, T/C","second compound 0.1 µM, first compound 0.001 µM",93.4%
same,"viability, T/C","second compound 0.1 µM, first compound 0.00316 µM",110%
same,"viability, T/C","second compound 0.1 µM, first compound 0.01 µM",87.2%
same,"viability, T/C",[7],69.9%
same,"viability, T/C",[8],56.4%
same,"viability, T/C","second compound 0.316 µM, first compound 0.000316 µM",91.4%
same,"viability, T/C","second compound 0.316 µM, first compound 0.001 µM",78.5%
same,"viability, T/C","second compound 0.316 µM, first compound 0.00316 µM",82.5%
same,"viability, T/C","second compound 0.316 µM, first compound 0.01 µM",85.4%
same,"viability, T/C",[13],74%
same,"viability, T/C",[14],66.2%
same,"viability, T/C","second compound 1 µM, first compound 0.000316 µM",86.7%
same,"viability, T/C","second compound 1 µM, first compound 0.001 µM",83.2%
same,"viability, T/C","second compound 1 µM, first compound 0.00316 µM",85.2%
same,"viability, T/C","second compound 1 µM, first compound 0.01 µM",92.3%
same,"viability, T/C",[19],67.6%
same,"viability, T/C",[20],60.9%
same,"viability, T/C","second compound 3.16 µM, first compound 0.000316 µM",86.6%
same,"viability, T/C","second compound 3.16 µM, first compound 0.001 µM",89.3%
same,"viability, T/C","second compound 3.16 µM, first compound 0.00316 µM",89.5%
same,"viability, T/C","second compound 3.16 µM, first compound 0.01 µM",78.8%
same,"viability, T/C",[25],83.3%
same,"viability, T/C",[26],56.1%
same,"viability, T/C","second compound 10 µM, first compound 0.000316 µM",86%
same,"viability, T/C","second compound 10 µM, first compound 0.001 µM",87%
same,"viability, T/C","second compound 10 µM, first compound 0.00316 µM",89.3%
same,"viability, T/C","second compound 10 µM, first compound 0.01 µM",76%
same,"viability, T/C",[31],74%
same,"viability, T/C",[32],58.1%
